Measurements: the NIST ThermoML archive (doi:10.1016/j.jct.2015.02.020)
Numbers after ± are expanded uncertainties.

Columns and labels:
[1] = 101.33 kPa, Liquid; for viscosity: Falling or rolling sphere viscometry; for speed of sound: Sing-around technique in a fixed-path interferometer; for mass density: Vibrating tube method
[2] = refractive index (Na D-line) (dimensionless); settings: 101.33 kPa, Liquid, Standard Abbe refractometry

CC[n+]1ccc(C)cc1.O=S(=O)([N-]S(=O)(=O)C(F)(F)F)C(F)(F)F
Settings	mass density, [1] [kg/m3]	refractive index, [2]	speed of sound, [1] [m/s]	viscosity, [1] [mPa·s]
293.15 K	1491.6 ± 0.67	1.44562 ± 0.00037	1275.3 ± 1.5	40.01 ± 0.87
298.15 K	1486.67 ± 0.66	1.44412 ± 0.00037	1263.8 ± 1.5	32.83 ± 0.72
303.15 K	1481.76 ± 0.66	1.4426 ± 0.00037	1252.4 ± 1.5	27.39 ± 0.6
308.15 K	1476.87 ± 0.65	1.44108 ± 0.00037	1241.2 ± 1.5	23.17 ± 0.51
313.15 K	1472 ± 0.65	1.43954 ± 0.00037	1230.1 ± 1.5	19.8 ± 0.43
318.15 K	1467.15 ± 0.64	1.43794 ± 0.00037	1219.2 ± 1.5	17.17 ± 0.37
323.15 K	1462.32 ± 0.64	1.43641 ± 0.00037	1208.3 ± 1.5	15 ± 0.33
328.15 K	1457.52 ± 0.63	1.43493 ± 0.00037	1197.3 ± 1.5	13.26 ± 0.29
333.15 K	1452.73 ± 0.63	1.43344 ± 0.00037	1187 ± 1.5	11.82 ± 0.26
338.15 K	1447.96 ± 0.62	1.43195 ± 0.00037	1176.5 ± 1.5	10.57 ± 0.23
343.15 K	1443.21 ± 0.62	1.43047 ± 0.00037	1166.1 ± 1.5	9.51 ± 0.21

CC[n+]1cccc(C)c1.O=S(=O)([N-]S(=O)(=O)C(F)(F)F)C(F)(F)F
Settings	mass density, [1] [kg/m3]	refractive index, [2]	speed of sound, [1] [m/s]	viscosity, [1] [mPa·s]
293.15 K	1493.4 ± 0.67	1.44503 ± 0.00037	1270.6 ± 1.5	47.85 ± 1.1
298.15 K	1488.54 ± 0.66	1.44355 ± 0.00037	1259.6 ± 1.5	39.08 ± 0.85
303.15 K	1483.69 ± 0.66	1.44204 ± 0.00037	1248.5 ± 1.5	32.33 ± 0.71
308.15 K	1478.86 ± 0.65	1.44056 ± 0.00037	1237.5 ± 1.5	27.12 ± 0.59
313.15 K	1474.05 ± 0.65	1.43904 ± 0.00037	1226.7 ± 1.5	23.06 ± 0.5
318.15 K	1469.26 ± 0.65	1.43751 ± 0.00037	1216 ± 1.5	19.81 ± 0.43
323.15 K	1464.49 ± 0.64	1.43599 ± 0.00037	1205.4 ± 1.5	17.32 ± 0.38
328.15 K	1459.74 ± 0.64	1.43451 ± 0.00037	1194.9 ± 1.5	15.15 ± 0.33
333.15 K	1455.01 ± 0.63	1.43304 ± 0.00037	1184.6 ± 1.5	13.39 ± 0.29
338.15 K	1450.3 ± 0.63	1.4316 ± 0.00037	1174.3 ± 1.5	11.92 ± 0.26
343.15 K	1445.6 ± 0.62	1.43014 ± 0.00037	1164.2 ± 1.5	10.67 ± 0.23

CC[n+]1ccccc1C.O=S(=O)([N-]S(=O)(=O)C(F)(F)F)C(F)(F)F
Settings	mass density, [1] [kg/m3]	refractive index, [2]	speed of sound, [1] [m/s]	viscosity, [1] [mPa·s]
293.15 K	1510.22 ± 0.69	1.44938 ± 0.00037	1310.9 ± 1.5	97.02 ± 2.8
298.15 K	1505.35 ± 0.68	1.44789 ± 0.00037	1299.5 ± 1.5	75.84 ± 1.9
303.15 K	1500.5 ± 0.68	1.4464 ± 0.00037	1288.5 ± 1.5	60.69 ± 1.3
308.15 K	1495.66 ± 0.67	1.44493 ± 0.00037	1277.3 ± 1.5	49.76 ± 1.1
313.15 K	1490.85 ± 0.67	1.44343 ± 0.00037	1266.3 ± 1.5	41.04 ± 0.9
318.15 K	1486.06 ± 0.66	1.44181 ± 0.00037	1255.4 ± 1.5	34.3 ± 0.75
323.15 K	1481.29 ± 0.66	1.44037 ± 0.00037	1244.6 ± 1.5	29.05 ± 0.63
328.15 K	1476.54 ± 0.65	1.4388 ± 0.00037	1234 ± 1.5	24.86 ± 0.54
333.15 K	1471.81 ± 0.65	1.43744 ± 0.00037	1223.4 ± 1.5	21.51 ± 0.47
338.15 K	1467.11 ± 0.64	1.43599 ± 0.00037	1213 ± 1.5	18.71 ± 0.41
343.15 K	1462.42 ± 0.64	1.43454 ± 0.00037	1202.7 ± 1.5	16.54 ± 0.36

CC[n+]1ccccc1.O=S(=O)([N-]S(=O)(=O)C(F)(F)F)C(F)(F)F [1-ethylpyridinium bis[(trifluoromethyl)sulfonyl]imide]
Settings	mass density, [1] [kg/m3]	refractive index, [2]	speed of sound, [1] [m/s]	viscosity, [1] [mPa·s]
293.15 K	1540.83 ± 0.72	1.44227 ± 0.00037	1279.1 ± 1.5	50.27 ± 1
298.15 K	1535.84 ± 0.71	1.44091 ± 0.00037	1268.1 ± 1.5	41.08 ± 0.9
303.15 K	1530.87 ± 0.71	1.43939 ± 0.00037	1257.1 ± 1.5	34.17 ± 0.75
308.15 K	1525.92 ± 0.7	1.43788 ± 0.00037	1246.3 ± 1.5	28.79 ± 0.63
313.15 K	1520.99 ± 0.7	1.43637 ± 0.00037	1235.6 ± 1.5	24.58 ± 0.54
318.15 K	1516.08 ± 0.69	1.4349 ± 0.00037	1225 ± 1.5	21.18 ± 0.46
323.15 K	1511.2 ± 0.69	1.43339 ± 0.00037	1214.5 ± 1.5	18.48 ± 0.4
328.15 K	1506.34 ± 0.68	1.43193 ± 0.00037	1204.2 ± 1.5	16.26 ± 0.35
333.15 K	1501.5 ± 0.68	1.43048 ± 0.00037	1193.9 ± 1.5	14.35 ± 0.31
338.15 K	1496.67 ± 0.67	1.42905 ± 0.00037	1183.8 ± 1.5	12.79 ± 0.28
343.15 K	1491.87 ± 0.67	1.42762 ± 0.00037	1173.8 ± 1.5	11.48 ± 0.25
